Results: patent US20230000835A1, “LYSINE-SPECIFIC HISTONE DEMETHYLASE INHIBITORS FOR THE TREATMENT OF MYELOPROLIFERATIVE NEOPLASMS” (Imago Biosciences, Inc., priority 2019, published 2023)
Structures can show the parent of a compound that is named as a salt.

Assays:
[1] = test system: inflammatory cytokines and circulating growth factors; experiment: Phase 1/2a clinical study: inflammatory cytokines and circulating growth factors; format: in vivo, human
Description: (§1) A multi-center, open-label study evaluating the safety, tolerability, steady-state pharmacokinetics and pharmacodynamics of Compound 1 administered orally once daily in patients with high-risk MF, including primary myelofibrosis (PMF), post-polycythemia vera myelofibrosis (PPV-MF), and post-essential thrombocythemia myelofibrosis (PET-MF) (collectively referred to as ‘MF’) was initiated as a Phase 1/2A study, and was expanded to a Phase 2b study.
(§2) This study was conducted at multiple sites. Up to 50 patients, eighteen years of age or older, with high-risk myelofibrosis were treated. The primary objectives included safety and tolerability, pharmacokinetics (PK; Phase 1/2A only) and spleen volume reduction (SVR). […] Key inclusion criteria included: high- or intermediate-2 risk myelofibrosis; per the Investigator's judgment have failed (refractory or resistant to, inadequately controlled by or intolerant of), or are not a candidate for, available approved therapy including ruxolitinib; platelet count ≥100K/μL; and, circulating blasts ≤10%.
One strategy to reduce the excess products of megakaryocytes is to target megakaryocyte maturation and function. The effectiveness of a treatment targeting the megakaryocyte may be quantified by measuring the products of megakaryocytes, e.g., platelets in circulation or inflammatory cytokines and growth factors in plasma or serum.

bone marrow fibrosis = experiment: Phase 1/2a clinical study: bone marrow fibrosis grade; format: in vivo, human; conditions: Day 0 to Day 84 or EoT; 13 patients with biopsies
Description: as §1
All but one patient had received one or more prior treatments including ruxolitinib. 48% had PMF, 33% PET-MF, 19% PPV-MF. The median patient age was 65 years (48-89) with 58% males. 48% were classified as high risk (IPSS), the remainder, intermediate risk-2. […] A substantial fraction of the patients had ≥3 mutations. Patients were treated daily for 12 weeks, in accordance with above starting dose and titration rules, followed by a washout period of up to 28 days. Starting platelet counts ranged from about 141 to about 1309 k/μL. Bone marrow biopsies and imaging studies of the abdomen were conducted prior to treatment and during the washout period after 12 weeks of dosing. Grading of myelofibrosis was performed centrally using the 2016 revised World Health Organization classification of myeloid neoplasia (Arber et al., 2016); image reading was also performed centrally. […]

[2] = test system: patients with high-risk MF; experiment: Clinical studies in myelofibrosis: safety and tolerability (adverse events); format: in vivo
Description: as §1, §2
Safety. […] Four SAEs attributed to Compound 1 (all Grade 3), including painful splenomegaly, headache, nausea and vomiting, and heart failure. There were 139 AEs of all grades attributed to Compound 1. The most common AEs across the 31 subjects from both of the above studies were thrombocytopenia (11 subjects, 35%), anemia (3 subjects, 10%) and nausea (1, 3%). The most common grade 3/4 AEs attributed to Compound 1 were Anemia (6 subjects, 19%) and neutropenia (3 subjects, 10%).

[3] = test system: patients with myelofibrosis; experiment: All patients (Phase 1/2a and 2b): total symptom score at week 12; format: in vivo, human; conditions: all patients at Week 12, n=32
Description: A multi-center, open label, dose-range finding study to assess the safety, optimally effective dosing rules, steady-state pharmacokinetics and pharmacodynamics of Compound 1 orally once daily in patients with myelofibrosis was conducted in a Phase 1/2a study. • Primary objectives were to evaluate, in MF patients the effect of Compound 1 on: Safety and tolerability • Pharmacokinetics (Phase 1/2a only) • Reduction in spleen volume
This study initiated as a Phase 1/2a study assessing the safety of the starting dose, an 85 day duration of treatment, and the pharmacokinetic and pharmacodynamic effects of Compound 1, with transition to a Phase 2b study incorporating changes supported by the earlier pharmacokinetic and pharmacodynamic studies and safety assessments. This study consisted of two treatment periods: the Initial Treatment Period (ITP), followed by the Additional Treatment Period (ATP). Patients commenced enrolment in the Phase 2b portion of the study, in which the ITP has been extended such that patients were treated daily for 169 days. The ATP, also extended, offered treatment to qualifying patients for an additional 169 days.
The Myeloproliferative Neoplasm Symptom Assessment Form Total Symptom Score (MPN-SAF TSS) will be completed at Baseline and on each visit day (with the exception of Day 3) from Day 0 through the End of Study (EoS) Visit.

[4] = Non-clinical acute toxicity studies; format: in vivo; conditions: even at extremely high doses (human equivalent dose ~20-40 mg/kg)

CN1CCN(C(=O)[C@H](CCCN[C@@H]2C[C@H]2c2ccc(F)cc2)NC(=O)c2ccc(-n3ccnn3)cc2)CC1 [Compound 1, N-[(2S)-5-{[(1R, 2S)-2-(4-fluorophenyl)cyclopropyl]amino}-1-(4-methylpiperazin-1-yl)-1-oxopentan-2-yl]-4-(1H-1,2,3-triazol-1-yl)benzamide, bis-tosylate salt]
levels of CCL3, IL-6, IL-10, IL-33, IL-28A, IFNβ, IFNα, IFNγ ([1]; in the course of treatment): not elevated in any patient | change in inflammatory cytokine S100A9 ([1]; week 12, FIG. 4): generally decreased | change in inflammatory cytokine RANTES ([1]; week 12, FIG. 5): generally decreased | change in inflammatory cytokine IL-8 ([1]; week 12, FIG. 6): generally decreased | change in circulating growth factor VEGF ([1]; week 12, FIG. 7): generally decreased | change in circulating growth factor PDGF-BB ([1]; week 12, FIG. 8): generally decreased | patients with a stable fibrosis score (bone marrow fibrosis): 62% | patients with improvement of bone marrow fibrosis of ≥1 grade (bone marrow fibrosis): 15% | subjects with anemia (most common AEs) ([2]; 31 subjects): 10% | subjects with grade 3/4 Anemia attributed to the drug ([2]; 31 subjects): 19% | subjects with grade 3/4 neutropenia attributed to the drug ([2]; 31 subjects): 10% | subjects with nausea (most common AEs) ([2]; 31 subjects): 3% | subjects with thrombocytopenia (most common AEs) ([2]; 31 subjects): 35% | tolerability ([2]; heterogeneous population of patients with MF): well tolerated | number of AEs of all grades attributed to the drug ([2]; human, in vivo): 139 | number of SAEs attributed to the drug (all Grade 3) ([2]; painful splenomegaly, headache, nausea and vomiting, heart failure): Four | patients with a reduction of symptom score of ≥50% [3]: 25% | acute toxicity in non-clinical studies [4]: no evidence in non-clinical studies of acute toxicity
